From ChEMBL document CHEMBL3271937, “Isoquinolines. 6. Potential central nervous system antitumor agents. Nitrogen mustards of 3-amino-4-(p-aminophenyl)isoquinoline” (J Med Chem, 1977)
Active and inactive are the calls of the source. No cut-off for these calls is given here.

Tests used:
Mus musculus [1] = assay: Toxicity in mouse allografted with mouse L1210 cells at 25 to 400 mg/kg, ip; format: organism-based; design: dose 25-400 mg/kg, route intraperitoneal; conditions: in vivo
L1210 = assay: Antitumor activity against mouse L1210 cells allografted in mouse assessed as tumor growth inhibition at 400 mg/kg, ip; format: functional, organism-based; design: dose 400 mg/kg
[2] = Octanol-water partition coefficient, log P of the compound; format: physicochemical
Mus musculus [3] = assay: Toxicity in mouse allografted with mouse L1210 cells at 200 mg/kg, ip; format: organism-based; design: dose 200 mg/kg, route intraperitoneal; conditions: in vivo

Structure (SMILES): Nc1ncc2ccccc2c1-c1ccc(NC(=O)CN(CCCl)CCCl)cc1
- Activity (Mus musculus [1]): Non-toxic
- TGI (L1210): inactive

Structure (SMILES): CC(=O)Nc1ncc2ccccc2c1-c1ccc(NC(=O)CN(CCCl)CCCl)cc1
- logP [2]: 3.87
- Activity (Mus musculus [1]): Non-toxic
- TGI (L1210): inactive

Structure (SMILES): CCNc1ncc2ccccc2c1-c1ccc(NC(=O)CCN(CCCl)CCCl)cc1.Cl
- logP [2]: 7.43
- Activity (Mus musculus [3]): Toxic
- TGI (L1210): inactive

Structure (SMILES): CC(=O)Nc1ncc2ccccc2c1-c1ccc(NC(=O)CCN(CCCl)CCCl)cc1
- Activity (Mus musculus [1]): Non-toxic
- TGI (L1210): inactive

Structure (SMILES): CC(=O)Nc1nc(Br)c2ccccc2c1-c1ccc(N(CCCl)CCCl)cc1.Cl
- Activity (Mus musculus [1]): Non-toxic
- TGI (L1210): inactive

Structure (SMILES): Nc1ccc(-c2c(N)ncc3ccccc23)cc1
- logP [2]: 2.58

Structure (SMILES): CC(=O)Nc1ncc2ccccc2c1-c1ccc(N(CCCl)CCCl)cc1
- Activity (Mus musculus [1]): Non-toxic
- TGI (L1210): inactive
